# Reference: patent publication US20010034328A1, “Treatment of male chronic pelvic pain syndrome” (priority 2000, published 2001)
# Legend:
# [1] = cited from earlier work
# [2] = test system: male subjects exhibiting signs and symptoms of Category III prostatitis; conditions: 200 mg bid, cited from earlier work
# [3] = test system: male subjects having a clinical diagnosis of chronic pelvic pain syndrome; test: treatment of male subjects with chronic pelvic pain syndrome with 600-900 mg per day; assay type: in vivo, human; conditions: 600, 700, 800 or 900 mg per day orally, up to sixteen weeks or more
# Experimental: Utilizing capsules prepared as above and 100 mg capsules available from ALZA Corporation as appropriate to meet the daily dosing requirements, male subjects having a clinical diagnosis of chronic pelvic pain syndrome are treated with 600, 700, 800 or 900 mg per day of pentosan polysulfate sodium for up to sixteen weeks, generally 1-2 weeks, 2-4 weeks, 4-8 weeks, 8-16 weeks or up to 32 weeks or more. The daily doses may be administered in multiple doses, generally three times per day with each dose containing equal amounts of pentosan polysulfate. As examples, the daily 600 mg dose may be administered as two 300 mg capsules of pentosan polysulfate as described herein in the morning and evening, or as three 200 mg doses (two 100 mg capsules) in the morning, at mid-day and in the evening. Typically, administration is in the non-fed mode with subjects receiving the doses either at least one hour before a meal or at least two hours after a meal. Daily 900 mg doses may be administered as three 300 mg capsules in the morning, at mid-day and in the evening. As with the 600 mg daily dose, administration typically is in the non-fed mode with subjects receiving the doses either at least one hour before a meal or at least two hours after a meal. […]
# [4] = test system: terminally ill cancer patients; conditions: approximately 900-2100 mg/day for up to 8 months; twenty-one patients; cited from earlier work
substance,measurement,setting,value
pentosan polysulfate,oral bioavailability,[1],approximately 3%
same,median measurement score,"[2]; after 3 months of treatment, compared with placebo",lowered to a greater extent than the placebo group
same,difference between the treatment group and the placebo group,[2]; after 3 months of treatment,no evident difference
same,symptoms of myalgia/arthralgia,[2]; treatment group,some improvement
same,"relief of intensity and frequency of symptoms (pain, frequency and urgency of urination, nocturia, ejaculatory pain, impotence)",[3],can experience relief
same,patients who experienced some degree of bleeding from the rectum or digestive tract,[4],Twenty
